Reference: US8536157B2, “Non-steroidal compounds” (The University of Melbourne, priority 2007, dated 2013)

Tests used:
[1] = tested on: LPS-induced pulmonary inflammation in mice; assay: Model of pulmonary inflammation induced by intra-nasal delivery of LPS; assay type: in vivo; conditions: CP933 150 mg/kg ip, dexamethasone 1 mg/kg ip, 2 hours after intranasal LPS
Experimental: The effect of the compounds of the present invention on BAL cell number, total BAL protein and inflammatory gene expression may be analysed. As an example, female Balb/c mice (17-21 g) may be given a single intraperitoneal (i.p.) injection of vehicle or CP92 (150, 50, 15 and 5 mg/kg in peanut oil DMSO). Two hours after the mice would be anaesthetised with methoxyflurane and a droplet of LPS (1 μg in saline) or sterile saline would be applied to the nose. As the animals breathe through their nose, the LPS or saline would be inhaled and gain access to the lung tissue. Twenty four hours post-LPS administration, mice would be euthanized with a mixture of 200 μl ketamine and 10 μl xylazine i.p., tracheotomised and bronchoalveolar lavage (BAL) performed for the assessment of cell number, cell type and protein content. The lungs would be removed and weighed as an indicator of any adverse effects of the drug treatment. Total RNA would be isolated from the lung tissues for analysis of gene expression (mRNA) using RT-PCR.

[2] = tested on: PGE2 release in J774 macrophages; assay: PGE2 release from LPS/IFNγ-stimulated J774 macrophages (radioimmunoassay); assay type: cell-based, murine; conditions: Mus musculus, J774, 24 h, 30 min pre-treatment, 24 hour incubation; for activity at 1 µM: read-out: Effects on PGE2 release in J774 macrophages at 1 μM as a % of LPS/IFNγ control, mean; for activity at 10 µM: l0 μM, read-out: Effects on PGE2 release in J774 macrophages at l0 μM as a % of LPS/IFNγ control, mean
[3] = target: proteins in rat lung membranes; assay: Competitive binding assay with [3H]-CP2117 on rat lung membranes (RLM); conditions: given as Log IC50 (negative values); displacement of 10 nM [3H]-CP2117, overnight at 4° C.; ND- not detected
[4] = tested on: human airway smooth muscle (HASM) cells; assay: Proliferation of human airway smooth muscle cells in response to thrombin (cell counting); assay type: cell-based; conditions: given as Log IC50 (negative values), thrombin 0.3 U/ml, 48 h, compound pre-incubated 30 minutes
Excerpt: (§1) 3. Effects of Compounds on the Proliferation of Cells in Response to the Proliferative Stimulus of Either Thrombin (Human Airway Smooth Muscle) or Basic Fibroblast Growth Factor (bFGF)(Human Lung Parenchymal Fibroblasts, pFb)
(§2) The effects of compounds of the present invention on the proliferation of cells in response to the proliferative stimulus of either thrombin (human airway smooth muscle) or basic fibroblast growth factor (bFGF)(human lung parenchymal fibroblasts, pFb) were investigated. Cells were seeded onto 6-well plates at a density of 1.5×10^4 cells cm^2, made quiescent by removal of serum-containing media for 24 hours and then stimulated for 48 h with either thrombin (0.3 U/ml) or bFGF (300 pM). The test compounds were pre-incubated with HASM or pFb cells for 30 minutes before the addition of thrombin. At the end of the 48 hour incubation period, cells were detached from the culture plate by trypsin (0.5% w/v in PBS containing 1 mM EDTA), incubated for 5 minutes at ambient temperature in PBS containing 0.5% (w/v) trypan blue, washed twice (2% FCS in PBS), isolated by centrifugation (12,000×g, 5 min) and resuspended in 200 μl 2% FCS in PBS for counting in a haemocytometer chamber.
Human airway smooth muscle (HASM) cells were cultured from macroscopically normal bronchi (0.5-2 cm diameter) obtained from lung resection or heart-lung transplant specimens provided by the Alfred Hospital (Melbourne) according to methods published in detail previously (Fernandes et al., 1999).
Approximately 0.1 g of smooth muscle was stripped from the wall of the bronchus for each cell culture. Dissected tissue was immersed in Dulbecco's modified Eagle's medium (DMEM) (Flow Laboratories, Scotland), supplemented with 100 U/mL penicillin G (CSL, Australia) and 100 μg/mL streptomycin (CSL, Australia). The tissue was rinsed in phosphate buffered saline (PBS; Oxoid, England) and the airway smooth muscle was chopped into 2 mm^3 pieces and digested for 2 hours in DMEM containing elastase (0.5 mg/mL: Worthington Biochemical, USA) followed by a 12 hour incubation in DMEM containing collagenase (1 mg/mL) (Worthington Biochemical, USA), at 37° C. with agitation.
The resulting cell suspension was centrifuged and washed three times in phosphate buffered saline (PBS). Following the last centrifugation step, the cells were resuspended in 25 mL of DMEM supplemented with L-glutamine (2 mM: Sigma, USA), penicillin G (100 U/mL), streptomycin (100 μg/mL), amphotericin B (2 μg/mL: Wellcome, UK) and heat-inactivated FCS (10% v/v: CSL, Australia) and seeded into 25 cm^2 culture flasks. The primary isolates were incubated for 7 to 14 days to reach confluence. […]

[5] = tested on: human lung parenchymal fibroblasts, pFb; assay: Proliferation of human lung parenchymal fibroblasts in response to bFGF (cell counting); assay type: cell-based; conditions: Fibroblast, given as Log IC50 (negative values), bFGF 300 pM, 48 h
Excerpt: as §1
as §2, with “chamber. […]” for “chamber.”

[6] = tested on: PGE2 release in U937 cells; assay: PGE2 release from PMA-treated U937 cells (radioimmunoassay); assay type: cell-based, human; conditions: 24 hour incubation; for activity at 1 µM: Homo sapiens, U-937, 24 h, read-out: Effects on PGE2 release in U937 cells at 1 μM as a % of PMA control, mean
Experimental: The U937 monocytic cell line (available from the ATCC, USA) is commonly used to evaluate anti-inflammatory agents. In the present experiment, U937 cells maintained in culture in a medium comprising RPMI containing (5% FCS v/v; supplemented with 100 U/ml penicillin, and […] streptomycin) were treated with phorbol myristate acetate (10 nM) then immediately dispersed into a 24 well cell culture plate at a concentration of 2×10^5 cells per ml in a volume of 1 ml per well. After 24 hours by which time the cells had adhered to the plastic substrate, they were treated with one of several analogues or with the vehicle of 0.1% DMSO. After a further 24 hour incubation period the supernatant was harvested and the content of prostaglandin E2 was measured by a radioimmunoassay, as described by Vlahos, R., & Stewart, A. G. (1999). (“Interleukin-1α and Tumour necrosis factor-α inhibit airway smooth muscle DNA synthesis by a glucocorticoid-sensitive induction of cyclo-oxygenase-2. British Journal of Pharmacology, 126, 1315-1324). […] The data in the table are presented as percentage of the control level of Prostaglandin E2.
Several analogues were evaluated for their actions on the release of PGE2 from the human U937macrophage cell line. Cells were stimulated by exposure to PMA 1 nM and after a period allowed for adherence of cells to the plastic culture dish, the cell were treated with one of several CP analogues. […] The chemical structures of CP1-56 and CP1-58 are as follows: […]

[7] = see WO 2004/101595; cited from earlier work

SMILES | Log IC50 RLM binding [3] | IC50 [4] [nM] | activity at 1 µM [6] [%] | other results
COc1ccc(/C(C)=N/OCc2ccc3nonc3c2)cc1O [CP933, 1-(3-hydroxy-4-methoxyphenyl)ethanone-O-[(benzo[c][1,2,5]oxadiazol-5-yl)methyl]oxime] | −6.185 | – | – | Airspace (pulmonary) neutrophilia ([1]; FIG. 1A): attenuated the airspace neutrophilia; Protein in the broncho-alveolar lavage (BAL) fluid ([1]; FIG. 1B): reduced accumulation of protein; activity at 1 µM [2]: 109%; activity at 10 µM [2]: 87%
COc1cc(I)c(C(C)=NOCc2ccc([N+](=O)[O-])cc2)cc1O [CP30220-minor (Z-), 5′-Hydroxy-2′-iodo-4′-methoxyacetophenone O-4-Nitrobenzyl Oxime] | – | 38.9 | – | –
CCC(=NOCc1ccc([N+](=O)[O-])cc1)c1ccc(OC)c(O)c1 [CP30221, 3′-Hydroxy-4′-methoxypropiophenone O-4-Nitrobenzyl Oxime] | – | 2880 | – | –
CCC(=NOCc1ccc([N+](=O)[O-])cc1)c1cc(O)c(OC)cc1I [CP30222, 5′-Hydroxy-2′-iodo-4′-methoxypropiophenone O-4-Nitrobenzyl Oxime] | – | 8.32 | – | –
COc1cc2c(cc1O)C(=NOCc1ccc([N+](=O)[O-])cc1)C[C@@H]1[C@@H]2CC[C@]2(C)[C@@H](O)CC[C@@H]12 [CP-2117, 2-methoxy-6-(4-nitrobenzyloxyimino)estradiol] | – | – | – | anti-inflammatory activity in vitro [7]: anti-inflammatory activity

More lines, main results first:

Log IC50 RLM binding [3] | SMILES | IC50 [4] [nM] | activity at 1 µM [6] [%] | other results
−6.44 | COc1ccc(/C(C)=N/OCc2ccc([N+](=O)[O-])cc2)cc1O [CP30218, (E)-3′-Hydroxy-4′-methoxyacetophenone O-4-Nitrobenzyl Oxime] | 5890 | – | activity at 1 µM [2]: 218%; activity at 10 µM [2]: 188%; IC50 [5]: 6.61 nM; melting point: 105 to 105.7 °C
−5.85 | COc1cc([C@H]2CC[C@](C)(CO)CC2)c(C(C)=NOCc2ccc([N+](=O)[O-])cc2)cc1O [CP30450B, 2′-(4-hydroxymethyl-4-methyl)cyclohexyl-5′-hydroxy-4′-methoxyacetophenone O-4-Nitrobenzyl Oxime] | – | – | Effects on PGE2 release in U937 cells at 1 μM as a % of PMA control, mean [6]: 77 % of PMA control
−5.73 | COc1cc([C@H]2CC[C@@](C)(CO)CC2)c(C(C)=NOCc2ccc([N+](=O)[O-])cc2)cc1O [CP30451, 2′-(4-hydroxymethyl-4-methyl)cyclohexyl-5′-hydroxy-4′-methoxyacetophenone O-4-Nitrobenzyl Oxime] | – | 67 | –
−5.54 | COc1cc([C@H]2CC[C@](C)(CO)CC2)c(C(C)=NOCc2ccc3nonc3c2)cc1O [CP30452, 2′-(4-Hydroxymethyl-4-methyl)cyclohexyl-5′-hydroxy-4′-methoxyacetophenone O-(benzofurazan-5-yl)methyl Oxime] | – | 89 | –
−4.76 | Brc1cc2c(cc1/C=N/OCc1ccccc1)OCO2 [Compound 10-OK-07a] | – | 114 | –
